Results from PMC10997755, “Discovery of a small-molecule inhibitor that traps Polθ on DNA and synergizes with PARP inhibitors” (Nature Communications, 2024).
Several values for one entry are separate records, joined by “and”; a condition that tells them apart may be missing. Equal values may be shown once. Entries after “also recorded” stand apart in the source; their conditions may differ.

What was measured:
Format in all cases: biochemical
Polθ-pol:DNA/DNA complex [1] = target: T1, Polθ-pol:DNA/DNA complex (Homo sapiens, UniProt O75417); assay: KpnI endonuclease protection assay; conditions: for i (%), normalized to 100%, ave(%) / i (%), replicates: 14 nt i; for i+1 (%) normalized to 100%, ave(%) / i+1 (%), replicates: 15 nt i+1
T1 construct: purified recombinant human Polθ-pol (comprising amino acid residues 1792–2590); made in house
T1 sequence (O75417 1792-2590): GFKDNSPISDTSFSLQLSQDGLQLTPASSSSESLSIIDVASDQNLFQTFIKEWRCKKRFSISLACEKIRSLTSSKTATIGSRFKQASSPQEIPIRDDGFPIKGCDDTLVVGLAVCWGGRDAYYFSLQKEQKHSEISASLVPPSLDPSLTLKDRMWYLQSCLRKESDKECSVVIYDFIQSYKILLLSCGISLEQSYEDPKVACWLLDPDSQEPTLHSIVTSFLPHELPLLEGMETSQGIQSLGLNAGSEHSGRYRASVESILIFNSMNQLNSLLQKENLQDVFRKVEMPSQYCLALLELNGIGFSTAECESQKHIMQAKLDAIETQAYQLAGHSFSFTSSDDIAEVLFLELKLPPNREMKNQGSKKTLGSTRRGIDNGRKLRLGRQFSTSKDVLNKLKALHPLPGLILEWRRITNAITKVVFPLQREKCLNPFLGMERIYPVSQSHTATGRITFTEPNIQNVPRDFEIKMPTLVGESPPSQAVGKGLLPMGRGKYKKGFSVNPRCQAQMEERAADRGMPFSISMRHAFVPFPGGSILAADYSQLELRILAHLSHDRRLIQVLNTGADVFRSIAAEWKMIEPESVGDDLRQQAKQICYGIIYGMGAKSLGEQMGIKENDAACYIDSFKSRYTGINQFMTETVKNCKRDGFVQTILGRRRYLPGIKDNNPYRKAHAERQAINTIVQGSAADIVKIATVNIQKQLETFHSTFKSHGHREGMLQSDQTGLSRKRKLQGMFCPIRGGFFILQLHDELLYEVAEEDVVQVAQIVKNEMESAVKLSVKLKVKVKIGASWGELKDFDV
Description: (§1) EcoRI and KpnI endonucleases assay: 25 nM 5’-^32P radiolabeled primer-template DNA Sc15-EcoRI (5’-^32P LM3-EcoRI/LM4-EcoRI) or Sc19-KpnI (5’-^32P LM11-Kpn/LM12-Kpn) in reaction buffer (25 mM Tris-HCl pH 7.5, 10 mM MgCl2, 10% glycerol, 0.1 mg/mL BSA, 0,01% igepal, 1 mM DTT) were incubated in the presence or in the absence of 50 nM Polθ-pol, 100 μM ddCTP, and 10 μM inhibitors, as indicated, for 5 min at room temperature. Next, 0.08 U/μL EcoRI or KpnI together with 500 nM “trapping” DNA Sc14 (RP559/RP702) were added and incubated for further 0–40 min at 30 °C as indicated. 10 nM PolθΔcen and FL-Polθ and 25 nM Sc15-EcoRI and Sc19-Kpn were probed with 0.04 U/μL EcoRI or KpnI (both from New England Biolabs) using the same conditions. Reactions were stopped by addition of formamide loading buffer with 50 mM EDTA, resolved in denaturing 20% urea PAAG and analyzed using Typhoon PhosphorImager (GE Amersham). Quantification was done in ImageQuant TL software. All quantified experiments were performed in triplicates and plotted as mean with ± s.d using GraphPad Prism 9 software.

KpnI = target: T2, KpnI (Klebsiella pneumoniae, UniProt P25237); assay: KpnI cleavage control in the absence of Polθ-pol; conditions: for cleavage %: KpnI; for % cleavage: compound 10 µM
T2 construct: purchased New England Biolabs
T2 sequence (P25237 1-218): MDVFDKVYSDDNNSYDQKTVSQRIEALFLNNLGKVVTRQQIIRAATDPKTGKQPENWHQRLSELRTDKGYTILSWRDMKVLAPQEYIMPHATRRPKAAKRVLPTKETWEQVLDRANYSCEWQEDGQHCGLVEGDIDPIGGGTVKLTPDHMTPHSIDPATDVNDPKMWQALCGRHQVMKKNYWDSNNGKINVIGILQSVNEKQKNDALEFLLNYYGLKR
Description: as §1

EcoRI = target: T3, EcoRI (Escherichia coli, UniProt P00642); assay: EcoRI cleavage control in the absence of Polθ-pol; conditions: for cleavage %: EcoRI; for % cleavage: compound 10 µM
T3 construct: purchased New England Biolabs
Description: as §1

Polθ-pol:DNA/DNA complex [2] = target: T1, Polθ-pol:DNA/DNA complex; assay: EcoRI endonuclease protection assay; conditions: for EcoRI cleavage %, ave / EcoRI cleavage %, replicates #1-#3: Eco+pol+ddC+RTx compound; for i (%) (14 nt), replicates #1-#3 / i (%), normalized to 100%, ave(%) / i+1 (%) (15 nt), replicates #1-#3 / i+1 (%) normalized to 100%, ave(%): pol+ddC+compound;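 for i+1 (%) (15 nt), replicates #1-#3: i+1 is one-nucleotide extended DNA within post-catalytic complexes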
Description: as §1

T3 sequence (P00642 2-277 limits assumed): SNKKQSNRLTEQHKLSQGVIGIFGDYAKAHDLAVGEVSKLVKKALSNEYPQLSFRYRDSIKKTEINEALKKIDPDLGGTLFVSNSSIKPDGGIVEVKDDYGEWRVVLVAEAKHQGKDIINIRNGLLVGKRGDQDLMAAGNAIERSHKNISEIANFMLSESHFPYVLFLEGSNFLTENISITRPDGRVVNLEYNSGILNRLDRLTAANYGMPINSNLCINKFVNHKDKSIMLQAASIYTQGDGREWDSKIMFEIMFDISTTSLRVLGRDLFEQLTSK

## CN(C(=O)Oc1c(N2CCN(CCO)C2=O)cc(C(F)(F)F)cc1C(F)(F)F)c1ccc(F)cc1 [RTx-161]
Polθ-pol:DNA/DNA complex [1]; Kpn+pol+ddC+RTx161, 2.5min
  KpnI cleavage %, ave: 0.667%
  KpnI cleavage %, replicates: 1.0% (2×) and 0.0%
Polθ-pol:DNA/DNA complex [1]; Kpn+pol+ddC+RTx161, 5min
  KpnI cleavage %, ave: 0.667%
  KpnI cleavage %, replicates: 1.0% (2×) and 0.0%
Polθ-pol:DNA/DNA complex [1]; Kpn+pol+ddC+RTx161, 10min
  KpnI cleavage %, ave: 1.7%
  KpnI cleavage %, replicates: 2.0% (2×) and 1.0%
Polθ-pol:DNA/DNA complex [1]; KpnI
  trapping of post-catalytic complexes, different sequence context: identical trapping
Polθ-pol:DNA/DNA complex [1]; KpnI, pol+ddC+161, 2.5 min
  i (%), normalized to 100%, ave(%): 100.0%
  i (%), replicates: 37.5% and 36.0% and 24.6%
  i+1 (%) normalized to 100%, ave(%): 100.0%
  i+1 (%), replicates: 53.1% and 51.8% and 59.1%
Polθ-pol:DNA/DNA complex [1]; KpnI, pol+ddC+161, 5 min
  i (%), normalized to 100%, ave(%): 87.7%
  i (%), replicates: 33.9% and 31.6% and 20.7%
  i+1 (%) normalized to 100%, ave(%): 105.6%
  i+1 (%), replicates: 54.8% and 55.9% and 62.4%
Polθ-pol:DNA/DNA complex [1]; KpnI, pol+ddC+161, 10 min
  i (%), normalized to 100%, ave(%): 67.8%
  i (%), replicates: 26.7% and 24.4% and 15.5%
  i+1 (%) normalized to 100%, ave(%): 114.7%
  i+1 (%), replicates: 61.3% and 62.1% and 64.7%
KpnI; 3 min
  cleavage %: 20.2%
KpnI; 6 min
  cleavage %: 33.3%
KpnI; absence of Polθ-pol
  inhibition of KpnI activity: resistant to inhibition
KpnI; cleavage 3 min
  % cleavage: 20%
KpnI; cleavage 6 min
  % cleavage: 33%
EcoRI; 3 min
  cleavage %: 26.2%
EcoRI; 6 min
  cleavage %: 44.3%
EcoRI; absence of Polθ-pol
  inhibition of EcoRI activity: resistant to inhibition; also recorded: do not inhibit
EcoRI; cleavage 3 min
  % cleavage: 26%
EcoRI; cleavage 6 min
  % cleavage: 44%
Polθ-pol:DNA/DNA complex [2]; 10 μM inhibitor, ddCTP
  time Polθ-pol is trapped on DNA/DNA (EcoRI cleavage suppressed): > 10 min
Polθ-pol:DNA/DNA complex [2]; 2.5min
  EcoRI cleavage %, ave: 4.0%
  EcoRI cleavage %, replicates #1-#3: 5.8% and 3.2% and 4.2%
  i (%) (14 nt), replicates #1-#3: 25.2% and 24.9% and 24.6%
  i (%), normalized to 100%, ave(%): 100.0%
  i+1 (%) (15 nt), replicates #1-#3: 53.9% and 59.3% and 59.1%
  i+1 (%) normalized to 100%, ave(%): 100.0%
Polθ-pol:DNA/DNA complex [2]; 5min
  EcoRI cleavage %, ave: 6.0%
  EcoRI cleavage %, replicates #1-#3: 8.0% and 4.6% and 4.9%
  i (%) (14 nt), replicates #1-#3: 21.5% and 21.2% and 20.7%
  i (%), normalized to 100%, ave(%): 85.0%
  i+1 (%) (15 nt), replicates #1-#3: 55.1% and 61.3% and 62.4%
  i+1 (%) normalized to 100%, ave(%): 103.8%
Polθ-pol:DNA/DNA complex [2]; 10min
  EcoRI cleavage %, replicates #1-#3: 9.0% and 6.1% and 7.3%
  i (%) (14 nt), replicates #1-#3: 11.4% and 15.0% and 15.5%
  i (%), normalized to 100%, ave(%): 56.1%
  i+1 (%) (15 nt), replicates #1-#3: 66.5% and 64.8% and 64.7%
  i+1 (%) normalized to 100%, ave(%): 113.8%
